Data set [1] concerns hereditary angioedema (HAE). Conditions: cited from earlier work.
For the next data set, the target named is human plasma kallikrein (Homo sapiens (Human), UniProt P03952). Briefly: Plasma Kallikrein Activity Assay. The data set is classed as biochemical.
The test system of data set [2] is LPS- or bacterial-induced sepsis. To be noted: LPS- or bacterial-induced sepsis in animals; cited from earlier work.
The next data set concerns sepsis. To be noted: sepsis patients; cited from earlier work.
The subject of data set [3] is middle cerebral artery occlusion (MCAO). Conditions: mouse model of MCAO; cited from earlier work.
For a further data set, the system named is ischemic stroke. To be noted: animal model of ischemic stroke; cited from earlier work.

Chain of human plasma kallikrein (P03952 whole entry, looked up): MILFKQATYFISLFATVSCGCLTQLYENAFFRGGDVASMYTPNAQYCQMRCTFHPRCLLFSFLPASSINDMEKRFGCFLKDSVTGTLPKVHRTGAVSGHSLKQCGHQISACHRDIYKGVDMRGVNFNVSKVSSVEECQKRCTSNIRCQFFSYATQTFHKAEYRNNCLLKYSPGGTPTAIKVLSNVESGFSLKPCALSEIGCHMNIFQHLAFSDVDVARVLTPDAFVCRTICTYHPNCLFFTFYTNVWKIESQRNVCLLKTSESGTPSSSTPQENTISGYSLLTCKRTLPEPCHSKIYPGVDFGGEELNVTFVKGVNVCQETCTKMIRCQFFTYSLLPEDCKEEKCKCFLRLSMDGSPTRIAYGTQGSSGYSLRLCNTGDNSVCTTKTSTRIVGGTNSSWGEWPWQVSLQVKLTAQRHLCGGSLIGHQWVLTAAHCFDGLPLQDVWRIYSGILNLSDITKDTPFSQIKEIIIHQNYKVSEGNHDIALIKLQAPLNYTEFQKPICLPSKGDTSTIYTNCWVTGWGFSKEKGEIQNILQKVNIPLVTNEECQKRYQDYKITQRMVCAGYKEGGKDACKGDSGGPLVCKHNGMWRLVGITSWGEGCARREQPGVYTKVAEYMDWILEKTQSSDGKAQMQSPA
Chain of human plasma kallikrein (P03952 whole entry partner, looked up): as the sequence (P03952 whole entry, looked up) above
Protocol for human plasma kallikrein: The effect of compounds of the invention on human plasma kallikrein activity was determined using the chromogenic substrates (DiaPharma Group, Inc., West Chester, Ohio, USA). In these experiments, 2 nM kallikrein (Enzyme Research Laboratories, South Bend, Ind., USA) was incubated with 80 μM S2302 (H-D-Pro-Phe-Arg-p-nitroaniline) in the absence or presence of increasing concentrations of compounds of the invention in a final volume of 200 μL Tris-HCl buffer (200 mM NaCl; 2.5 mM CaCl2; 50 mM Tris-HCl, pH 7.8).
Data were analyzed using SigmaPlot software (Systat Software, Inc., San Jose, Calif., USA) (Four Parameter Logistic Curve).

Regarding `NC(N)=NCCC[C@@H](N)C(=O)N[C@@H](CCCN=C(N)N)C(=O)N1CCC[C@H]1C(=O)N1C[C@H](O)C[C@H]1C(=O)NCC(=O)N[C@@H](Cc1cccs1)C(=O)N[C@@H](CO)C(=O)N1Cc2ccccc2C[C@@H]1C(=O)N1[C@H](C(=O)N[C@@H](CCCN=C(N)N)C(=O)O)C[C@@H]2CCCC[C@@H]21` [Icatibant], the “efficacy in treating HAE” value in data set [1] (HAE) was “effective in treating HAE”.
By Ki is commonly meant the dissociation constant of the complex between target and ligand, obtained from inhibition or displacement. Higher therefore signals lower affinity. `CN(C1CC1)C(c1cccc(N)c1)c1cccc(NC(=O)c2cc(C(F)(F)F)nn2-c2cccc(CN)c2)c1` (centres unmarked) [Compound 102b, 1-(3-(aminomethyl)phenyl)-N-(3-((3-aminophenyl)(cyclopropyl-methylamino)methyl)phenyl)-3-(trifluoromethyl)-1H-pyrazole-5-carboxamide]: the inhibition constant Ki on human plasma kallikrein lay within 0.0001 to 0.05 µM.
Take “H-D-Pro-Phe-Arg-chloromethylketone [H-D-Pro-Phe-Arg-chloromethylketone (CMK)]”: the lesions entry in data set [2] was “reduce lesions”.
Regarding “C1-inhibitor: "a physiological inhibitor (C1-inhibitor)"; "reduced infarct size in a mouse model of middle cerebral artery occlusion" [Compound C1-inhibitor]”, in data set [2], the lesions entry is “reduce lesions” and the “vascular permeability in multiple organs” value is “reduce vascular permeability”. Also, the clinical improvement result in the data set with sepsis is “Clinical improvement was observed”. The infarct size result in data set [3] is reported as “reduced infarct size”.
ecallantide [DX-88]: in the data set on ischemic stroke, the brain edema result is reported as “reduced”, the infarct volume result is on record as “reduced” and the neurological deficits result was “reduced”. The edema entry in data set [1] (patients with hereditary angioedema (HAE)) is “alleviates edema”.

The record behind these values is patent publication US10689346B2, “Human plasma kallikrein inhibitors” (BioCryst Pharmaceuticals, Inc., priority 2014, dated 2020).
